Results on 15 compounds are retold here after patent publication US10562891B2, “Quinazolinones as PARP14 inhibitors” (Ribon Therapeutics Inc., priority 2017, dated 2020).

For this assay, the target named is catalytic domain of human PARP14 (Homo sapiens (Human), UniProt Q460N5). The experiment in a line: Enzymatic assay for inhibition of PARP14 (DELFIA, auto-modification with biotin-NAD). As to conditions: auto-modification of PARP14 by biotin-NAD, 50 nM PARP14, 3 μM biotin-NAD. It counts as biochemical. The method, boiled down:
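DELFIA auto-modification read-out: europium-streptavidin bound to biotin-NAD incorporated onto nickel-captured His-TEV PARP14 catalytic domain. Compound preincubated 30 min, then 50 nM enzyme with 3 μM biotin-NAD reacted 3 h, all at 25 °C, pH 8, then NAD quench. Percent inhibition normalized to rucaparib/DMSO wells, fitted (4- or 3-parameter) for IC50.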

A value given as a limit tells only on which side of the number the result lay.

Chain of catalytic domain of human PARP14 (Q460N5 1611-1801): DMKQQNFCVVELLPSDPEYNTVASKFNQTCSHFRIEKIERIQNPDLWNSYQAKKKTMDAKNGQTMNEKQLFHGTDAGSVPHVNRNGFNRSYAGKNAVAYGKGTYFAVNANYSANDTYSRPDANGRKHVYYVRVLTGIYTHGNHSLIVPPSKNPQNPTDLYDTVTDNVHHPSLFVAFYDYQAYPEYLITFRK

Take `CC(=O)N1CCC(CNc2cc3nc(CSC4CCOCC4)[nH]c(=O)c3c(F)c2F)CC1` [Example 369]: the IC50 was less than 1 µM.

In the case of `CC(=O)N1CC[C@@H](Nc2cc3nc(CS[C@H]4CC[C@H](O)CC4)[nH]c(=O)c3c(F)c2F)C1` [Example 349], the IC50 was less than 1 µM.

For `O=c1[nH]c(CSC2CCNCC2)nc2cc(OCC3CC3)cc(F)c12` [Example 278, 7-(Cyclopropylmethoxy)-5-fluoro-2-((piperidin-4-ylthio)methyl)quinazolin-4(3H)-one], the IC50 is less than 1 µM.

As to `Cc1cccc2c(=O)[nH]c(CSC3CCN(Cc4ccccn4)CC3)nc12` [Example 18, 8-Methyl-2-(((1-(pyridin-2-ylmethyl)piperidin-4-yl)thio)methyl)quinazolin-4(3H)-one], the IC50 is less than 1 µM.

On to `O=c1[nH]c(CS[C@H]2CC[C@H](CO)CC2)nc2cc(Nc3cccnc3)ccc12` [Example 107, 2-(((trans-4-(Hydroxymethyl)cyclohexyl)thio)methyl)-7-(pyridin-3-ylamino) quinazolin-4(3H)-one], for which the IC50 was less than 1 µM.

In turn, `Cc1cccc2c(=O)[nH]c(CSC3CCN(Cc4c[nH]c5ccncc45)CC3)nc12` [Example 151, 2-(((1-((1H-Pyrrolo[3,2-c]pyridin-3-yl)methyl)piperidin-4-yl)thio)methyl)-8-methylquinazolin-4(3H)-one bistrifluoroacetate] returned an IC50 of less than 1 µM.

`O=c1[nH]c(CS[C@H]2CC[C@H](C(=O)O)CC2)nc2cc(NC3CCCC3)cc(F)c12` [Example 217, trans-4-(((7-(Cyclopentylamino)-5-fluoro-4-oxo-3,4-dihydroquinazolin-2-yl)methyl)thio)cyclohexane-1-carboxylic acid]: the IC50 is less than 1 µM.

On to `Cc1cccc2c(=O)[nH]c(CS[C@H]3CC[C@H](CCN)CC3)nc12` [Example 181, 2-((((trans)-4-(2-aminoethyl)cyclohexyl)thio)methyl)-8-methylquinazolin-4(3H)-one], for which the IC50 is less than 1 µM.

In the case of `O=c1[nH]c(CSC2CCOCC2)nc2cc(OCC3CC(F)(F)C3)cc(F)c12` [Example 317, 7-((3,3-Difluorocyclobutyl)methoxy)-5-fluoro-2-(((tetrahydro-2H-pyran-4-yl)thio)methyl)quinazolin-4(3H)-one], the IC50 was less than 1 µM.

`O=c1[nH]c(CSC2CCOCC2)nc2cc(OCC3CCOCC3)cc(Cl)c12` [Example 353] yielded an IC50 of less than 1 µM.

For `CC(F)(F)CN1CCC(COc2cc(F)c3c(=O)[nH]c(CSC4CCOCC4)nc3c2)CC1` [Example 299, 7-((1-(2,2-Difluoropropyl)piperidin-4-yl)methoxy)-5-fluoro-2-(((tetrahydro-2H-pyran-4-yl)thio)methyl)quinazolin-4(3H)-one], the IC50 was less than 1 µM.

Take `O=c1[nH]c(CSC2CCN(CC(F)F)CC2)nc2cc(NC3CCCC3)ccc12` [Example 258, 7-(Cyclopentylamino)-2-(((1-(2,2-difluoroethyl)piperidin-4-yl)thio)methyl)quinazolin-4(3H)-one]: the IC50 was less than 1 µM.

`O=C(Nc1ccccc1)c1ccc2c(=O)[nH]c(CSC3CCOCC3)nc2c1` [Example 78, 4-Oxo-N-phenyl-2-(((tetrahydro-2H-pyran-4-yl)thio)methyl)-3,4-dihydro Quinazoline-7-carboxamide] registered an IC50 of more than 10 µM.

With `O=c1[nH]c(CSC2CCOCC2)nc2cc(NCCC3CCOCC3)ccc12` [Example 256, 7-((2-(Tetrahydro-2H-pyran-4-yl)ethyl)amino)-2-(((tetrahydro-2H-pyran-4-yl)thio)methyl)quinazolin-4(3H)-one], the IC50 is less than 1 µM.

`O=c1[nH]c(CSC2CCOCC2)nc2cc(NC3CCCC3)ccc12` [Example 115, 7-(Cyclopentylamino)-2-(((tetrahydro-2H-pyran-4-yl)thio)methyl)quinazolin-4(3H)-one] had an IC50 of less than 1 µM.
